Patent US12569509B2, “Method and composition for preventing and treating viral infections” (priority 2017, dated 2026)
Where “and” joins values, the source holds several entries; their conditions need not be identical. Equal values may be shown once.

Key:
RecQ helicase = biological target: T1, RecQ helicase (Escherichia coli, UniProt P15043); assay: Cell-free fluorescence molecular beacon helicase assay; type: biochemical, E. coli; parameters: Average rate of reaction / Rate (Triplicate): unit: RFU/min; details: for Average rate of reaction: mean of triplicate; for Rate (Triplicate): rate of reaction=(F0-F35)/35; for Fluorescence at 35 minutes, Run 2 / Fluorescence at time 0, Run 2: duplicate, listed as M; for Change in helicase activity compared to the DMSO control: any of the tested concentrations (0.06-200 μg/mL)
T1 construct: a full-length E. coli helicase, RecQ, was used

human PBMC = assay: LPS stimulated cytokine secretion in human PBMC pretreated with compounds (Phase 2); type: cell-based; details: 1 ng/mL LPS stimulation for 8 hours, means from 3 donors
From the text: Results are represented as fold-change relative to LPS treatment alone for each cytokine calculated by means from 3 separate donors.
RPMI medium alone, RPMI supplemented with 0.2% DMSO (to mimic treatment conditions) or LPS stimulation alone were used as controls.
Except for the two negative control conditions, all 3 donors responded to all experimental conditions tested with the secretion of TNF-α, IL-1β, and IL-6 albeit with a high degree of variability.

[1] = TA 0.2 μg/mL (plate column 5, wells A-C)
[2] = TA 2 μg/mL (plate column 7, wells A-C)
[3] = TA 6 μg/mL (plate column 8, wells A-C)
[4] = TA 200 μg/mL (plate column 11, wells A-C)
[5] = TA 200 + Buffer (plate column 12, wells A-C)

T1 sequence (P15043 whole entry): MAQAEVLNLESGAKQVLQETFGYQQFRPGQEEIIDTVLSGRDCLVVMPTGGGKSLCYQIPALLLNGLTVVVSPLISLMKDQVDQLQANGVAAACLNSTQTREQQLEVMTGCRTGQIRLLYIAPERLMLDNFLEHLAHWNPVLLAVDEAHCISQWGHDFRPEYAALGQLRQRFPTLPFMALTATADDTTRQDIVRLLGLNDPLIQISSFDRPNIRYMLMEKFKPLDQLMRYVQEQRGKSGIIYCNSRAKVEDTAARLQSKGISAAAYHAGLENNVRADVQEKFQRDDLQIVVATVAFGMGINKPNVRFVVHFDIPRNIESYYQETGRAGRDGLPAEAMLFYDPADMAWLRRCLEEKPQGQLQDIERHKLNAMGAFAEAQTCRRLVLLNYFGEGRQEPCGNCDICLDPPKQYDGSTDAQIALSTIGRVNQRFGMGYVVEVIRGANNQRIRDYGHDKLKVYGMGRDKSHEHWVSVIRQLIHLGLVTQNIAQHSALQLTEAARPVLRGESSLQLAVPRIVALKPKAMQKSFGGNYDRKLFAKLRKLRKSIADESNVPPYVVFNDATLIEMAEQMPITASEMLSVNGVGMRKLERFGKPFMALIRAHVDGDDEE

Compound: O=c1c(O)c(-c2cc(O)c(O)c(O)c2)oc2cc(O)cc(O)c12 [Myricetin]
- Average rate of reaction (RecQ helicase; 0.06 μg/mL): 119.381
- Rate (Triplicate) (RecQ helicase; 0.06 μg/mL): 156.0857 and 120.9143 and 81.14
- Fluorescence at 35 minutes, Run 2 (RecQ helicase; 0.2 μg/mL): 3820 RFU and 2972 RFU
- Fluorescence at time 0, Run 2 (RecQ helicase; 0.2 μg/mL): 5788 RFU and 4210 RFU
- Average rate of reaction (RecQ helicase; 0.2 μg/mL): 54.7
- Fluorescence at 35 minutes, Run 2 (RecQ helicase; 0.6 μg/mL): 4426 RFU and 3662 RFU
- Fluorescence at time 0, Run 2 (RecQ helicase; 0.6 μg/mL): 9244 RFU and 9661 RFU
- Average rate of reaction (RecQ helicase; 0.6 μg/mL): 39.68
- Fluorescence at 35 minutes, Run 2 (RecQ helicase; 2 μg/mL): 4289 RFU and 4448 RFU
- Fluorescence at time 0, Run 2 (RecQ helicase; 2 μg/mL): 8530 RFU and 9826 RFU
- Average rate of reaction (RecQ helicase; 2.0 μg/mL): 98.63
- Fluorescence at 35 minutes, Run 2 (RecQ helicase; 6 μg/mL): 3604 RFU and 4445 RFU
- Average rate of reaction (RecQ helicase; 6.0 μg/mL): 107.0439
- Fluorescence at 35 minutes, Run 2 (RecQ helicase; 20 μg/mL): 5025 RFU and 5336 RFU
- Fluorescence at time 0, Run 2 (RecQ helicase; 20 μg/mL): 5022 RFU and 5466 RFU
- Average rate of reaction (RecQ helicase; 20.0 μg/mL): 42.49
- Fluorescence at 35 minutes, Run 2 (RecQ helicase; 60 μg/mL): 4100 RFU and 3834 RFU
- Average rate of reaction (RecQ helicase; 60.0 μg/mL): 85
- Fluorescence at 35 minutes, Run 2 (RecQ helicase; 200 μg/mL): 2562 RFU and 2378 RFU
- Fluorescence at time 0, Run 2 (RecQ helicase; 200 μg/mL): 4555 RFU and 3893 RFU
- Average rate of reaction (RecQ helicase; 200.0 μg/mL): 69.46
- Rate (Triplicate) (RecQ helicase; 200.0 μg/mL): 81.98 and 52.34 and 74.0595
- Fluorescence at 0:00:00, Run 1 (RecQ helicase; TA 0.06 μg/mL (plate column 4, wells A-C)): 14946 RFU and 8957 RFU and 8828 RFU
- Fluorescence at 0:00:00, Run 1 (RecQ helicase; [1]): 10047 RFU and 9670 RFU and 6773 RFU
- Fluorescence at 0:35:00, Run 1 (RecQ helicase; [1]): 7144 RFU and 8199 RFU and 5403 RFU
- Fluorescence at 0:35:00, Run 1 (RecQ helicase; TA 0.6 μg/mL (plate column 6, wells A-C)): 7961 RFU and 4234 RFU and 5238 RFU
- Fluorescence at 0:00:00, Run 1 (RecQ helicase; [2]): 12406 RFU and 10235 RFU and 7932 RFU
- Fluorescence at 0:35:00, Run 1 (RecQ helicase; [2]): 8386 RFU and 5162 RFU and 6669 RFU
- Fluorescence at 0:00:00, Run 1 (RecQ helicase; [3]): 13174 RFU and 13286 RFU and 6908 RFU
- Fluorescence at 0:35:00, Run 1 (RecQ helicase; [3]): 9109 RFU and 7022 RFU and 6649 RFU
- Fluorescence at 0:35:00, Run 1 (RecQ helicase; TA 20 μg/mL (plate column 9, wells A-C)): 7412 RFU and 10338 RFU and 6947 RFU
- Fluorescence at 0:35:00, Run 1 (RecQ helicase; TA 60 μg/mL (plate column 10, wells A-C)): 8883 RFU and 7317 RFU and 6795 RFU
- Fluorescence at 0:00:00, Run 1 (RecQ helicase; [4]): 6608 RFU and 4850 RFU and 6196 RFU
- Fluorescence at 0:35:00, Run 1 (RecQ helicase; [4]): 5004 RFU and 3826 RFU and 4747 RFU
- Fluorescence at 0:00:00, Run 1 (RecQ helicase; [5]): 5165 RFU and 8965 RFU and 8207 RFU
- Fluorescence at 0:35:00, Run 1 (RecQ helicase; [5]): 3022 RFU and 4495 RFU and 5122 RFU
- Change in helicase activity compared to the DMSO control (RecQ helicase): no observed consistent change
- Change in helicase activity compared to the DMSO control (RecQ helicase; listed as myricetin): no effect
- IL-1β Mean Fold-Change (Relative to LPS alone) (human PBMC; 10 mM (so in the source)): 1.10
- IL-6 Mean Fold-Change (Relative to LPS alone) (human PBMC; 10 mM (so in the source)): 0.97
- TNF-α Mean Fold-Change (Relative to LPS alone) (human PBMC; 10 mM (so in the source)): 0.90
- IL-1β Mean Fold-Change (Relative to LPS alone) (human PBMC; 100 mM (so in the source)): 1.09
- IL-6 Mean Fold-Change (Relative to LPS alone) (human PBMC; 100 mM (so in the source)): 0.88
- TNF-α Mean Fold-Change (Relative to LPS alone) (human PBMC; 100 mM (so in the source)): 0.93
- IL-1β Mean Fold-Change (Relative to LPS alone) (human PBMC; 200 mM (so in the source)): 0.98
- IL-6 Mean Fold-Change (Relative to LPS alone) (human PBMC; 200 mM (so in the source)): 0.75
- TNF-α Mean Fold-Change (Relative to LPS alone) (human PBMC; 200 mM (so in the source)): 0.86
